Where a name gives a salt, the structure may show the parent alone. Read-outs that look alike come from different tables or passages of the source.
Columns and labels:
[1] = rabbit plasma, 37° C., HPLC
Protocol: (§1) 0.1 ml samples were taken from each of the solutions, added respectively to 1 ml of blood plasma of rabbit (taken from New Zealand white rabbits, treated according to conventional methods, anticoagulated with heparin) or 1 ml of blood plasma of rat (taken from live SD rats, processed according to conventional methods, anti coagulated with heparin), homogeneously mixed, and placed in a thermostatic water bath at 37° C. for incubation with time being recorded. Samples were taken at different time points after the experiment began, and 2 ml of acetonitrile was immediately added. The samples were shaken and centrifuged for 5 min (15,000 rpm), and the supernatant was then taken for HPLC analysis.

[2] = rat plasma, 37° C., HPLC
Protocol: as §1

[3] = physchem; settings: physiological saline, saline or isotonic

Q: What does the source list for `CC(C)c1cccc(C(C)C)c1OC(=O)C(F)CCN(C)C` (racemic) [E1, Propofol 4-(N,N-dimethyl)amino-2-(R,S)-fluorobutyrate hydrochloride]?
A: Dissociation percent 15 s ([1]; 15 s): 67.5%; Dissociation percent 30 s ([1]; 30 s): 85.5%; Dissociation percent 5 s ([2]; 5 s): 75.1%; Dissociation percent 15 s ([2]; 15 s): 83.2%; Dissociation percent 30 s ([2]; 30 s): 96.7%; solubility [3]: > 20 mg/mL

Reference: US9643917B2, “Water-soluble propofol derivatives and uses thereof” (JIANGSU NHWALUOKANG PHARMCEUTICAL RESEARCH AND DEVELOPMENT …, priority 2014, dated 2017)
